Among the data in article PMC6882436 (Journal of Extracellular Vesicles, 2019) are Kd values, retold here.

For the assay, the target named is T1, eGFP-CD82 (KAI1/CD82) (Homo sapiens, UniProt P27701).
T1 sequence (P27701 1-267): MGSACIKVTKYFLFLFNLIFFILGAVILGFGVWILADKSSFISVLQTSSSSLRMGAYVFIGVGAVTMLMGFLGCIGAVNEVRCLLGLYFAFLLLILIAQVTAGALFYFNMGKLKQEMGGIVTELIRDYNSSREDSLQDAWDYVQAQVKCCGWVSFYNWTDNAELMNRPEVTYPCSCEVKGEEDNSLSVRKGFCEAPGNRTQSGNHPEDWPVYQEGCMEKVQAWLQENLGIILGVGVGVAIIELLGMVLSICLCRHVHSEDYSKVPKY
Kind of assay: microscale thermophoresis, eGFP fluorescence, cell lysate. Type of assay: binding. For orientation: MST reads how a fluorescent partner responds to local heating, with and without ligand.

In general, Kd refers to a measure of binding affinity in units of concentration. Low readings indicate tighter binding, high ones weaker binding. With `CC(C)CCC[C@@H](C)[C@H]1CC[C@H]2[C@@H]3CC=C4C[C@@H](O)CC[C@]4(C)[C@H]3CC[C@]12C` [cholesterol], the dissociation constant Kd came out at 5.89 µM.
